Laboratory results as given in patent US20220267271A1, “WNT ACTIVATORS AND METHODS OF USE” (MAYO FOUNDATION FOR MEDICAL EDUCATION AND RESEARCH, priority 2019, published 2022).
Values after ≈ are worked out from the molar mass of the structure shown. Read-outs that look alike come from different tables or passages of the source. Blank lines part the entries; values can stand above or below the compound they belong to.

Tests used:
Wnt/β-catenin signaling [1] = test: Luciferase reporter assay (Super8XTOPFlash) for Wnt/β-catenin signaling in HEK293 cells; format: cell-based; settings: 24 h; for EC50: Homo sapiens, Wnt3A plasmid-transfected HEK293 cells, 30-30,000 nM, mean and SD of 3-7 independent experiments; for Wnt reporter activity / activation of Wnt/β-catenin signaling: HEK293 cells
Description: (§1) (A) structures of niciosamide and CI-994; (B) HEK293 cells were transfected with Super8XTOPFlash and β galactosidase vectors along with Wnt3A or control vector. After 24 hours incubation, cells were treated with CI-994 at the indicated concentration for 24 hr. The luciferase activity was then measured and normalized to the activity of the β-galactosidase. (C) HT1080 cells stably transduced LRP6 with HA tag were treated with niciosamide and CI-994 at the indicated concentrations for 24 h. The levels of HA-LRP6 were examined by Western blot with anti-HA antibody. (D) Western blots showing the depletion of LRP6 after 2 days of transiently transfection of 50 nM LRP6 siRNA in HEK293 cells. ON-TARGETplus double-stranded siRNA oligomers against human LRP6 and non-specific scrambled siRNA control (Stealth RNAi™ siRNA Negative Control, Med GC) were purchased from Thermo Scientific. siRNA LRP6-1, siRNA LRP6-2 and control siRNA were Thermo Scientific catalog numbers J-003845-09, J-003845-11 and 12935300, respectively. (E) HEK293 cells were transfected with LRP6 siRNAs, and after 8 h incubation were further transfected with Super8XTOPFlash construct and β galactosidase-expressing vector. After 24 h incubation, the cells were treated with CI-994 (16 μM) for 24 h. The luciferase activity was then measured and normalized to β-galactosidase activity. All the values are the average of triplicate determinations with the SD values indicated by error bars. **P<0.01 versus corresponding control value.
HEK293 cells were transfected with SuperXTOPFlash and β-galactosidase vectors along with Wnt3A or control vector. After 24 h incubation, cells were treated with 1015 or 1039 at the indicated concentrations for 24 h. The luciferase activity was then measured and normalized to the activity of the β-galactosidase. All the values are the average of triplicate determinations with the SD values indicated by error bars. This experiment is representative of at least three such experiments performed with similar data.
Luciferase reporter assay for Wnt/β-catenin signaling: HEK293 cells were plated into 24-well plates. After overnight culture, the cells were transiently transfected with the Super8XTOPFlash luciferase construct and β-galactosidase-expressing vector along with or without Wnt3A plasmid. After 24 h incubation, cells were treated with each individual compound at the indicated concentrations for 24 h. Cells were then lysed and both luciferase and β-galactosidase activities were determined. The luciferase activity was normalized to the β-galactosidase activity.
HEK293 cells were plated into 24-well plates. After overnight culture, the cells were transiently transfected with the Super8XTOPFlash luciferase construct and β-galactosidase-expressing vector along with the Wnt3A plasmid. After 24 h incubation, the cells were treated with each individual compound at 30-30,000 nM in triplication for 24 h. The cells were then lysed, and luciferase and β-galactosidase activities were determined with the luciferase assay system (Promega, Cat. #E1501) and β-galactosidase assay system (Promega, Cat. #E2000), respectively. The luciferase activity was normalized to the s-galactosidase activity, and the EC50 values were calculated by use of GraphPad software, and shown in the below table. All the EC50 values (mean and SD) are from 3-7 independent experiments.

Wnt/β-catenin signaling [2] = settings: cancer cells; cited from earlier work
LRP6 = test: Wnt reporter assay in HEK293 cells after LRP6 siRNA knockdown; format: cell-based, human; settings: CI-994 16 μM, 1011, 1015, 1023 1 μM, 24 h
Description: as §1
(A) HT1080 cells stably transduced with human LRP6 with HA tag were treated with niciosamide (1 μM) and other compounds as noted (1 μM) for 24 hr. The levels of HA-LRP6 were examined by Western blots with anti-HA antibody. All samples were also probed with anti-actin antibody to verify equal loading. This experiment is a representative of two such experiments performed with similar data. (B) N2a cells were treated with 1015 and 1011 at the indicated concentrations for 24 h. The expression levels of LRP6, β-catenin and actin were examined by Western blotting. This experiment is a representative of three such experiments performed with similar data. (C) HEK293 cells were transfected with LRP6 siRNAs, and after 8 h incubation were further transfected with Super8XTOPFlash construct and β galactosidase-expressing vector. ON-TARGETplus double-stranded siRNA oligomers against human LRP6 and non-specific scrambled siRNA control (Stealth RNAi™ siRNA Negative Control, Med GC) were purchased from Thermo Scientific. siRNA LRP6-1, siRNA LRP6-2 and control siRNA were Thermo Scientific catalog numbers J-003845-09, J-003845-11 and 12935300, respectively. […] The luciferase activity was then measured and normalized to β-galactosidase activity. […]

[3] = Metabolic stability in mouse liver microsomes; format: in vitro ADME; settings: 2 μM, five time points over 40 min, NADPH
Description: Metabolic stability of several compounds (1009, 1011, 1015, 1020, and 1056) and 2 reference compounds (propranolol and imipramine) were determined in mouse liver microsomes at five time points over 40 min using HPLC-MS. Metabolic stability is defined as the percentage of parent compound lost over time in the presence of a metabolically active test system.
Metabolic stability in mouse liver microsomes: Mouse hepatic microsomes were isolated from pooled, perfused livers of Balb/c male mice according to the standard protocol. The batch of microsomes was tested for quality control using Imipramine, Propranolol and Verapamil as reference compounds. Microsomal incubations were carried out in 96-well plates in 5 aliquots of 40 μL each (one for each time point). Liver microsomal incubation medium contained PBS (100 mM, pH 7.4), MgCl2 (3.3 mM), NADPH (3 mM), glucose-6-phosphate (5.3 mM), glucose-6-phosphate dehydrogenase (0.67 units/ml) with 0.42 mg of liver microsomal protein per ml. Control incubations were performed replacing the NADPH-cofactor system with PBS. Test compound (2 μM, final solvent concentration 1.6%) was incubated with microsomes at 37° C., shaking at 100 rpm. Incubations were performed in duplicates. Five time points over 40 minutes had been analyzed. The reactions were stopped by adding 12 volumes of 90% acetonitrile-water to incubation aliquots, followed by protein sedimentation by centrifuging at 5500 rpm for 3 minutes. […]. Supernatants were analyzed using the HPLC system coupled with tandem mass spectrometer.
The elimination constant (kel), half-life (t1/2) and intrinsic clearance (Clint) were determined in plot of […] versus time, using linear regression analysis: […]

[4] = Aqueous (kinetic) solubility assay in PBS pH 7.4; format: physicochemical; settings: phosphate-buffered saline, 25 °C, pH 7.4, aqueous buffer, kinetic from dmso stock, PBS pH 7.4, 2% DMSO, two hours, assay range 2-200 μM
Description: Aqueous solubility assay: Using a 10 mM stock solution of the compound in 100% DMSO, dilutions were prepared to a theoretical concentration of 200 μM in duplicates in phosphate-buffered saline pH 7.4 with 2% final DMSO. In parallel, compound dilutions in 50% acetonitrile/PBS were prepared to theoretical concentrations of 0 μM (blank), 50 μM, 100 μM and 200 μM with 2% final DMSO to generate calibration curves. The experimental compound dilutions in PBS were further allowed to equilibrate at 25° C. on a thermostatic orbital shaker for two hours and then centrifuged at 14000 rpm, 5 min and filtered through HTS filter plates using a vacuum manifold. The supernatants of test compounds were diluted 2-fold with acetonitrile contained 4% DMSO before measuring. Ondansetron was used as reference compound to control proper assay performance. 200 μl of samples were transferred to 96-well plate and measured in 200-550 nm range with 5 nm step. The effective range of this assay is approximately 2-200 μM and the compounds returning values close to the upper limit of the range may have higher actual solubility (e.g. 5 ? deoxy-5-fluorouddine).

C2C12 cells = test: Alkaline phosphatase (ALP) activity assay, osteoblastic differentiation of C2C12 cells; format: cell-based; settings: dose-response 0.1-12.8 μM, 72 h
Description: C2C12 cells were seeded into 24-well plates (1×10^5 cells/well). After culture overnight, the cells were treated with a Wnt activator at 0.8 μM (A) and 1.6 μM (B) for 72 h. The ALP activity was measured by ALP assay kit from AnaSpec (AS-72146). All the values are the average of triple determinations with the s.d. indicated by error bars. *P<0.05, **P<0.01 versus corresponding control value. This experiment is a representation of two such experiments performed with similar data.
C2C12 cells were seeded into 24-well plates (1×10^5 cells/well). After culture overnight, the cells were treated with the noted compounds at 0, 0.1, 0.2, 0.4, 0.8, 1.6, 3.2, 6.4 and 12.8 μM for 72 hours. The ALP activity was measured by ALP assay kit from AnaSpec (AS-72146). All the values are the average of triple determinations with the s.d. indicated by error bars.
Alkaline phosphatase (ALP) activity assay: C2C12 cells in 24-well plates were treated with each individual compound at the indicated concentrations for 72 h. Cells were then harvested for assay of ALP activity with the ALP assay kit (AnaSpec) according to the manufacturers specifications.

[5] = read-out: PBS solubility, pH 7.4, μM Exp1
[6] = read-out: PBS solubility, pH 7.4, μM Exp2
[7] = read-out: PBS solubility, pH 7.4, μM Mean

SMILES: CCN1CCCC1CNC(=O)c1ccc(C(=O)Nc2ccccc2N)nc1 (stereo not shown) [Compound 1028]
- EC50 (Wnt/β-catenin signaling [1]): 519 ± 24 nM

SMILES: O=C(Nc1ccc([N+](=O)[O-])cc1Cl)c1cc(Cl)ccc1O [Niclosamide, 5-chloro-N-[2-chloro-4-nitrophenyl]-2-hydroxy benzamide]
- Wnt/β-catenin signaling (by inducing LRP6 degradation) (Wnt/β-catenin signaling [2]): suppresses

SMILES: CC1CCCC(C)N1CCC(=O)Nc1ccc(C(=O)Nc2ccccc2N)nc1 (stereo not shown) [Compound 1023]
- EC50 (Wnt/β-catenin signaling [1]): 496 ± 195 nM
- effect of knockdown of LRP6 expression on the compound's effect on Wnt/β-catenin signaling (LRP6): significantly attenuated

SMILES: Cc1cc(Cl)ccc1OCCCC(=O)NO [Droxinostat, reference compound]
- Wnt reporter activity / activation of Wnt/β-catenin signaling (Wnt/β-catenin signaling [1]): unable to activate

SMILES: Cn1cc(CNCC2CCN(c3ncc(C(=O)NO)cn3)CC2)c2ccccc21 [JNJ-26481585, reference compound]
- Wnt reporter activity / activation of Wnt/β-catenin signaling (Wnt/β-catenin signaling [1]): unable to activate

SMILES: COCCN1CCCC1CNC(=O)c1ccc(C(=O)Nc2ccccc2N)nc1 (stereo not shown) [Compound 1030]
- EC50 (Wnt/β-catenin signaling [1]): 483 ± 40 nM

SMILES: O=C(CCCCCN1C(=O)c2cccc3cccc(c23)C1=O)NO [Scriptaid, reference compound]
- Wnt reporter activity / activation of Wnt/β-catenin signaling (Wnt/β-catenin signaling [1]): unable to activate

SMILES: Nc1ccccc1NC(=O)c1ccc(C(=O)NCCN2CCCC3CCCCC32)cn1 (stereo not shown) [Compound 1009]
- potency in inducing C2C12 osteoblastic differentiation compared with CI-994 (C2C12 cells): more potent than CI-994
- EC50 (Wnt/β-catenin signaling [1]): 601 ± 101 nM
- solubility at 2 h [4, 5]: 197 µM (≈ 83 µg/mL)
- solubility at 2 h [4, 6]: 191 µM (≈ 80.5 µg/mL)
- solubility at 2 h [4, 7]: 194 µM (≈ 81.8 µg/mL)
- stability in mouse hepatic microsomal system [3]: moderate stability

SMILES: Nc1ccccc1NC(=O)c1ccc(C(=O)NCC2CCN2C2CCCC2)cc1 (stereo not shown) [Compound 1021]
- EC50 (Wnt/β-catenin signaling [1]): 1380 ± 643 nM

SMILES: Nc1ccccc1NC(=O)c1ccc(C(=O)NCCN2CCC3(CCCCC3)CC2)cn1 [Compound 1013]
- EC50 (Wnt/β-catenin signaling [1]): 444 ± 36 nM

SMILES: Nc1ccccc1NC(=O)c1ccc(C(=O)NCC2CCCN2CC2CCCCC2)cn1 (stereo not shown) [Compound 1038]
- EC50 (Wnt/β-catenin signaling [1]): 526 ± 268 nM

The next lines start with results.

- EC50 (Wnt/β-catenin signaling [1]): 532 ± 38 nM
SMILES: Nc1ccccc1NC(=O)c1ccc(C(=O)NCC2CCCN2C2CCCCC2)cn1 (stereo not shown) [Compound 1046]

- EC50 (Wnt/β-catenin signaling [1]): 408 ± 77 nM
SMILES: Nc1ccccc1NC(=O)c1ccc(C(=O)NCC2CCN2C2CCCCCC2)cn1 (stereo not shown) [Compound 1050]

- EC50 (Wnt/β-catenin signaling [1]): 298 ± 25 nM
SMILES: Nc1ccccc1NC(=O)c1ccc(C(=O)NCC2CCCN2CCc2ccccc2)cn1 (stereo not shown) [Compound 1039]
- Wnt reporter activity / activation of Wnt/β-catenin signaling (Wnt/β-catenin signaling [1]): activate

- EC50 (Wnt/β-catenin signaling [1]): 494 ± 147 nM
SMILES: Nc1ccccc1NC(=O)c1ccc(NC(=O)CCN2CCC[C@@H]3CCCC[C@@H]32)cn1 (racemic) [Compound 1059]

- stability in mouse hepatic microsomal system [3]: good stability
SMILES: CC(=O)Nc1ccc(C(=O)Nc2ccccc2N)nc1 [Compound 1056]

- EC50 (Wnt/β-catenin signaling [1]): 596 ± 79 nM
SMILES: COc1ccc(CN2CCC2CNC(=O)c2ccc(C(=O)Nc3ccccc3N)nc2)cc1 (stereo not shown) [Compound 1041]

- solubility at 2 h [4, 5]: 109 µM (≈ 32 µg/mL)
- solubility at 2 h [4, 6]: 113 µM (≈ 33.2 µg/mL)
- solubility at 2 h [4, 7]: 111 µM (≈ 32.6 µg/mL)
SMILES: Cc1nccn1CC1CCc2c(c3ccccc3n2C)C1=O (stereo not shown) [Ondansetron, reference compound]

- EC50 (Wnt/β-catenin signaling [1]): 507 ± 128 nM
SMILES: Nc1ccccc1NC(=O)c1ccc(C(=O)NCC2CCN2C2CCCCC2)cn1 (stereo not shown) [Compound 1045]
